Data taken from PMC8355244, “A fragment-based approach identifies an allosteric pocket that impacts malate dehydrogenase activity” (Communications Biology, 2021).
“And” between values parts separate entries of the source, which are not always exact repeats. Equal entries are not always repeated. Where two headings read alike, the source gives them in different places.

How the values were obtained:
[1] = 3 h exposure to 5 μM; cited from earlier work
MDH = details: cited from earlier work
WT PfMDH [2] = biological target: T1, WT PfMDH (Plasmodium falciparum, UniProt Q6VVP7); assay: STD-NMR fragment screening, wild type; assay type: binding; details: 10 μM protein, 100-fold molar excess
T1 construct: The full-length WT PfMDH gene was cloned into pETM-13; made in house; host or cells: E. coli Rosetta 2 (DE3) pLysS
Experimental: (§1) NMR spectra were acquired on Bruker Avance III (600 MHz) spectrometer at 300 K, equipped with a triple resonance cryoprobe head and an automated SampleJet sample changer. The samples for STD experiments were prepared in 100 mM Na-phosphate pH 7.4, 400 mM NaCl and spectra were recorded in water with 1:100-fold excess of the fragment (dissolved in DMSO at 100 mM) in an additional 10% (v/v) D2O to provide a lock signal. Final protein and ligand concentrations were 10 μM and 1 mM, respectively. Selective saturation of the protein resonances (on resonance spectrum) was performed by irradiating at 0.5 ppm using a series of Eburp2.1000-shaped 90 pulses (50 ms, 1 ms delay between pulses) for a total saturation time of 2.0 s. For the reference spectrum (off-resonance), the samples were irradiated at −10 ppm. On- and off-resonance scans were subtracted using phase cycling. The fragment library screening was performed by testing 300 mixtures containing five fragments each initially. Mixtures that yielded positive STD signals were selected and deconvolved, i.e., fragments that formed “active” mixtures were tested separately. Spectra were analyzed with TopSpin® software, 4.0

PfMDH [3] = biological target: T2, PfMDH (Plasmodium falciparum, UniProt Q6VVP7); assay: Thermal shift assay (TSA); assay type: binding; details: for TSA melting curve raw signal: triplicate columns; for TSA melting curve raw fluorescence signal: three replicate columns
T2 construct: The full-length WT PfMDH gene was cloned into pETM-13; made in house; host or cells: E. coli Rosetta 2 (DE3) pLysS
Experimental: The TSA experiment was conducted in a BioRad CSX 96 (Biorad). Each reaction consisted of 1 mM of compound (100 mM stock in 100% (v/v) DMSO) and 10 μM PfMDH in 100 mM Na–phosphate buffer pH 7.4, 400 mM NaCl, and 10× Sypro Orange (Invitrogen) for a total volume of 100 μl. Control experiments were performed with 1% (v/v) DMSO. Inflection points were determined using BioRad CFX96™ control software. Generally, a temperature increase of over 1 °C is interpreted as a result of the stabilization of the protein-ligand interaction. On the contrary, a negative shift is considered a destabilization caused by the fragment.

PfMDH [4] = biological target: T2, PfMDH; assay: Kinetics experiment with varying L-malate, substrate inhibition model; assay type: biochemical
V190W PfMDH = biological target: T3, V190W PfMDH (Plasmodium falciparum, UniProt Q6VVP7, V190W); assay: STD-NMR fragment screening, dimeric mutant; assay type: binding; details: 10 μM protein, 1 mM fragment
T3 construct: made in house; host or cells: E. coli (stated expressly only for the WT construct)
Experimental: as §1

WT PfMDH [5] = biological target: T1, WT PfMDH; assay: Microscale thermophoresis (MST) binding to fluorescently labeled PfMDH
Experimental: A Nanotemper MonolithNT.115 instrument (Nano-temper Technologies, GmbH) was used to quantify ligand/protein interactions. Purified PfMDH was labeled using the Red-NHS Monolith Protein Labeling Kit according to the manufacturer’s protocol. All reactions were performed in 100 mM Na-phosphate buffer pH 7.4, 400 mM NaCl, 0.05% Tween-20 in standard capillaries (Nanotemper Technologies GmbH). The ligand was 2× fold diluted starting from 4 mM as the highest concentration; the final protein concentration was 50 nM. All samples were incubated with compounds for about 1 h at room temperature followed by centrifugation at 18,000 rpm (Eppendorf Centrifuge 5415R) before loading into capillaries. Measurement was performed in triplicate at 40% LED intensity and 40% MST power. The Kd model was employed to determine the binding constant using the software MO.Affinity Analysis v2.3 while data collection was performed with MO.Control 2 (Nano-temper Technologies, GmbH).

T1 sequence (Q6VVP7 entry or part of it): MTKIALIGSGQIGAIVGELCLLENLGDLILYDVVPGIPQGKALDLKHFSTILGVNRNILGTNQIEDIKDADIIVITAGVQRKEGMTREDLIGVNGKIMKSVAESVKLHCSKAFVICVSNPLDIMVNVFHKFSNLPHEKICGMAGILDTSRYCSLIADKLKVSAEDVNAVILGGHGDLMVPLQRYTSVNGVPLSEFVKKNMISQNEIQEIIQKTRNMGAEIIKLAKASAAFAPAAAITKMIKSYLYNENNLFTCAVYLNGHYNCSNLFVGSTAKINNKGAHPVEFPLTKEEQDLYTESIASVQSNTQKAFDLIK
T2 sequence (Q6VVP7 entry or part of it): as above
T3 sequence (Q6VVP7 whole entry V190W, the tested form may be a part): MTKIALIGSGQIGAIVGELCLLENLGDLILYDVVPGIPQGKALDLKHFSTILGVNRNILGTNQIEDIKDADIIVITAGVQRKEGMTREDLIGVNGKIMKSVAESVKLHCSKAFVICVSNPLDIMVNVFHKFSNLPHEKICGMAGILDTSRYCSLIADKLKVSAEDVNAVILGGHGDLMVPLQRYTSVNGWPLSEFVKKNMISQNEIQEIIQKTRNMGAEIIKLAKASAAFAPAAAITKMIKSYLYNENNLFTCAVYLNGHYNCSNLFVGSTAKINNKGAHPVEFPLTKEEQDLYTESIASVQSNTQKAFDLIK

O=C1NCc2c1c1c3ccccc3[nH]c1c1[nH]c3ccccc3c21 [staurosporine aglycone]
decrease in cell viability [1]: 80% | IC50 (MDH): 8 µM

Nc1nc(-c2ccc(F)c(F)c2)cs1 [4DT, 4-(3,4-difluorophenyl) thiazol-2-amine]
STD-NMR binding (WT PfMDH [2]): could not be seen to bind | ΔTm at 1000 µM (PfMDH [3]; 1 mM compound vs DMSO control): -2 ± 0.17 °C | Tm (PfMDH [3]; 1 mM compound, 10 μM PfMDH, DMSO control Tm 58): 56 ± 0.17 °C | TSA melting curve raw signal (PfMDH [3]; Temperature 25): 3306.061 and 3342.86 and 3324.801 | TSA melting curve raw signal (PfMDH [3]; Temperature 28.5): 3333.659 and 3382.548 and 3355.546 | TSA melting curve raw signal (PfMDH [3]; Temperature 29): 3336.65 and 3387.196 and 3360.105 | TSA melting curve raw signal (PfMDH [3]; Temperature 29.5): 3339.189 and 3391.098 and 3364.015 | TSA melting curve raw signal (PfMDH [3]; Temperature 30): 3341.416 and 3393.698 and 3368 | TSA melting curve raw signal (PfMDH [3]; Temperature 30.5): 3342.684 and 3395.106 and 3371.797 | TSA melting curve raw signal (PfMDH [3]; Temperature 31): 3343.918 and 3395.986 and 3375.352 | TSA melting curve raw signal (PfMDH [3]; Temperature 31.5): 3345.279 and 3397.252 and 3379.023 | TSA melting curve raw signal (PfMDH [3]; Temperature 32): 3347.139 and 3398.82 and 3383.605 | TSA melting curve raw signal (PfMDH [3]; Temperature 32.5): 3348.867 and 3401.838 and 3388.573 | TSA melting curve raw signal (PfMDH [3]; Temperature 33): 3351.566 and 3406.371 and 3394.323 | TSA melting curve raw signal (PfMDH [3]; Temperature 33.5): 3355.148 and 3412.286 and 3401.055 | TSA melting curve raw signal (PfMDH [3]; Temperature 34): 3359.354 and 3419.075 and 3408.698 | TSA melting curve raw signal (PfMDH [3]; Temperature 34.5): 3364.345 and 3426.84 and 3417.169 | TSA melting curve raw signal (PfMDH [3]; Temperature 35): 3370.925 and 3434.905 and 3426.749 | TSA melting curve raw signal (PfMDH [3]; Temperature 35.5): 3378.766 and 3443.449 and 3437.428 | TSA melting curve raw signal (PfMDH [3]; Temperature 36): 3388.116 and 3452.416 and 3449.193 | TSA melting curve raw signal (PfMDH [3]; Temperature 36.5): 3399.139 and 3461.927 and 3462.335 | TSA melting curve raw signal (PfMDH [3]; Temperature 37): 3411.581 and 3472.191 and 3477.03 | TSA melting curve raw signal (PfMDH [3]; Temperature 37.5): 3425.633 and 3483.607 and 3493.418 | TSA melting curve raw signal (PfMDH [3]; Temperature 38): 3441.177 and 3496.044 and 3511.6 | TSA melting curve raw signal (PfMDH [3]; Temperature 38.5): 3458.245 and 3509.831 and 3531.909 | TSA melting curve raw signal (PfMDH [3]; Temperature 39): 3477.439 and 3525.778 and 3554.709 | TSA melting curve raw signal (PfMDH [3]; Temperature 39.5): 3498.925 and 3543.752 and 3579.893 | TSA melting curve raw signal (PfMDH [3]; Temperature 40): 3522.761 and 3563.858 and 3607.657 | TSA melting curve raw signal (PfMDH [3]; Temperature 40.5): 3549.068 and 3586.405 and 3638.198 | TSA melting curve raw signal (PfMDH [3]; Temperature 41): 3578.181 and 3611.326 and 3671.73 | TSA melting curve raw signal (PfMDH [3]; Temperature 41.5): 3609.957 and 3638.555 and 3708.036 | TSA melting curve raw signal (PfMDH [3]; Temperature 42): 3645.082 and 3668.877 and 3747.413 | TSA melting curve raw signal (PfMDH [3]; Temperature 42.5): 3683.644 and 3702.365 and 3790.395 | TSA melting curve raw signal (PfMDH [3]; Temperature 43): 3726.411 and 3739.617 and 3837.462 | TSA melting curve raw signal (PfMDH [3]; Temperature 43.5): 3773.558 and 3781.332 and 3888.754 | TSA melting curve raw signal (PfMDH [3]; Temperature 44): 3825.615 and 3827.686 and 3944.903 | TSA melting curve raw signal (PfMDH [3]; Temperature 44.5): 3882.684 | TSA melting curve raw fluorescence signal (PfMDH [3]; Temperature 73.5): 7306.372 and 7609.03 and 7435.601 | TSA melting curve raw fluorescence signal (PfMDH [3]; Temperature 74): 7252.808 and 7555.848 and 7383.062 | TSA melting curve raw fluorescence signal (PfMDH [3]; Temperature 74.5): 7199.861 and 7502.703 and 7330.716 | TSA melting curve raw fluorescence signal (PfMDH [3]; Temperature 75): 7147.275 and 7449.479 and 7278.535 | TSA melting curve raw fluorescence signal (PfMDH [3]; Temperature 75.5): 7094.934 and 7396.013 and 7226.157 | TSA melting curve raw fluorescence signal (PfMDH [3]; Temperature 76): 7042.814 and 7342.543 and 7173.967 | TSA melting curve raw fluorescence signal (PfMDH [3]; Temperature 76.5): 6991.326 and 7288.895 and 7121.791 | TSA melting curve raw fluorescence signal (PfMDH [3]; Temperature 77): 6939.998 and 7235.077 and 7069.532 | TSA melting curve raw fluorescence signal (PfMDH [3]; Temperature 77.5): 6888.609 and 7181.445 and 7017.268 | TSA melting curve raw fluorescence signal (PfMDH [3]; Temperature 78): 6837.679 and 7128.499 and 6965.286 | TSA melting curve raw fluorescence signal (PfMDH [3]; Temperature 78.5): 6786.806 and 7075.655 and 6913.558 | TSA melting curve raw fluorescence signal (PfMDH [3]; Temperature 79): 6735.738 and 7023.249 and 6861.909 | TSA melting curve raw fluorescence signal (PfMDH [3]; Temperature 79.5): 6684.496 and 6971.241 and 6810.337 | TSA melting curve raw fluorescence signal (PfMDH [3]; Temperature 80): 6633.443 and 6919.222 and 6759.175 | TSA melting curve raw fluorescence signal (PfMDH [3]; Temperature 80.5): 6581.916 and 6866.533 and 6708.294 | TSA melting curve raw fluorescence signal (PfMDH [3]; Temperature 81): 6530.578 and 6813.96 and 6657.201 | TSA melting curve raw fluorescence signal (PfMDH [3]; Temperature 81.5): 6479.57 and 6761.335 and 6606.519 | TSA melting curve raw fluorescence signal (PfMDH [3]; Temperature 82): 6428.761 and 6708.745 and 6556.435 | TSA melting curve raw fluorescence signal (PfMDH [3]; Temperature 82.5): 6378.066 and 6656.727 and 6506.333 | TSA melting curve raw fluorescence signal (PfMDH [3]; Temperature 83): 6327.701 and 6605.378 and 6456.007 | TSA melting curve raw fluorescence signal (PfMDH [3]; Temperature 83.5): 6277.373 and 6554.37 and 6405.813 | TSA melting curve raw fluorescence signal (PfMDH [3]; Temperature 84): 6227.075 and 6503.782 and 6355.543 | TSA melting curve raw fluorescence signal (PfMDH [3]; Temperature 84.5): 6177.058 and 6453.083 and 6304.863 | TSA melting curve raw fluorescence signal (PfMDH [3]; Temperature 85): 6127.333 and 6402.172 and 6253.833 | TSA melting curve raw fluorescence signal (PfMDH [3]; Temperature 85.5): 6077.95 and 6351.179 and 6202.991 | TSA melting curve raw fluorescence signal (PfMDH [3]; Temperature 86): 6029.103 and 6299.937 and 6152.723 | TSA melting curve raw fluorescence signal (PfMDH [3]; Temperature 86.5): 5980.562 and 6248.441 and 6102.328 | TSA melting curve raw fluorescence signal (PfMDH [3]; Temperature 87): 5932.235 and 6197.461 and 6052.601 | TSA melting curve raw fluorescence signal (PfMDH [3]; Temperature 87.5): 5883.708 and 6146.127 and 6003.152 | TSA melting curve raw fluorescence signal (PfMDH [3]; Temperature 88): 5834.776 and 6094.257 and 5953.457 | TSA melting curve raw fluorescence signal (PfMDH [3]; Temperature 88.5): 5785.039 and 6042.085 and 5903.221 | TSA melting curve raw fluorescence signal (PfMDH [3]; Temperature 89): 5734.759 and 5989.63 and 5852.78 | TSA melting curve raw fluorescence signal (PfMDH [3]; Temperature 89.5): 5684.264 and 5936.616 and 5801.633 | TSA melting curve raw fluorescence signal (PfMDH [3]; Temperature 90): 5633.721 | Ki (substrate inhibition constant of malate) (PfMDH [4]; in the presence of 63 μM compound, control 12.5 ± 4.2): 63000 ± 31800 µM | Ki (substrate inhibition constant of malate) (PfMDH [4]; in the presence of 125 μM compound): 72900 ± 41900 µM | STD-NMR binding (V190W PfMDH): binds to dimeric V190W PfMDH | Kd (WT PfMDH [5]; MST report, target 50 nM, 25.1°C, n 3, Kd Confidence ± 1.7444E-05, read-out: Kd (MST report)): 99 µM | Kd (WT PfMDH [5]; MST, 50 nM labeled WT PfMDH, ligand 240 nM to 4 mM, read-out: Kd): 99 ± 1.7 µM
